Earlier results on one compound are cited in article PMC10458458, “Characterization of Anticancer Effects of the Analogs of DJ4, a Novel Selective Inhibitor of ROCK and MRCK Kinases” (Pharmaceuticals, 2023).

One series relates to HeLa cells. Further details: method as in PMID 10779382. Particulars: >100 µM; cited from earlier work.
Another series relates to astrocytes. Further details: method as in PMID 22929997. The settings on record: 10 µM; cited from earlier work.

Take `C[C@@H](N)[C@H]1CC[C@H](C(=O)Nc2ccncc2)CC1` [Compound Y27632, Y27632]: the effect on cytokinesis entry with HeLa cells is on record as “impaired cytokinesis”. Also, in the series on astrocytes, the “effect on proliferation and cell cycle” value is “promoted proliferation and progression of the cell cycle”.
